Series [1] is described as follows: activity coefficient (dimensionless); of the first substance listed, at infinite dilution; xn = mol fraction of the nth substance listed. The conditions noted are these: Liquid, x1 = 0.
For series [2] the following is noted: Liquid, Ebulliometric method (Recirculating still).
Where [3] appears, read: 293.15 K, 46.85 kPa, comparative ebulliometry.
Setting [4] is: 303.15 K, 69.6 kPa, comparative ebulliometry.
Setting [5] is: 311.15 K, 93.62 kPa, comparative ebulliometry.
The mark [6] stands for this setting: 333.15 K, 100 kPa, Rayleigh distillation.
[7] abbreviates: 303.15 K, 100 kPa, Rayleigh distillation.
Setting [8] is: 313.15 K, 100 kPa, Rayleigh distillation.
[9] abbreviates: 323.15 K, 100 kPa, Rayleigh distillation.

Numbers after ± are expanded uncertainties.

As usually defined, the vapor or sublimation pressure is the equilibrium pressure above the liquid or solid.

Consider `CCO` [ethanol] + ClCCl, for which the activity coefficient was 9.56 ± 0.78 in series [1] (setting [3]), 7.98 ± 0.65 in series [1] (setting [4]) and 7.09 ± 0.58 in series [1] (setting [5]).

Consider `CCCO` [propan-1-ol] + ClCCl, for which the activity coefficient amounted to 8.38 ± 0.7 in series [1] (setting [3]), 6.99 ± 0.61 in series [1] (setting [4]) and 5.98 ± 0.51 in series [1] (setting [5]).

On to `ClCCl` [dichloromethane] + CCCO, for which the activity coefficient was 1.99 ± 0.12 in series [1] (283.15 K, 100 kPa, Inert gas stripping); 2 ± 0.16 in series [1] (293.15 K, 100 kPa, Inert gas stripping); 2.02 ± 0.16 in series [1] (303.15 K, 100 kPa, Inert gas stripping); 2.05 ± 0.16 in series [1] (313.15 K, 100 kPa, Inert gas stripping); 2.04 ± 0.16 in series [1] (323.15 K, 100 kPa, Inert gas stripping); 2.02 ± 0.16 in series [1] (333.15 K, 100 kPa, Inert gas stripping). Moreover, the activity coefficient in series [1] (setting [6]) was 2.06 ± 0.16.

For `ClCCl` [dichloromethane] + CCO, the activity coefficient in series [1] (setting [7]) stood at 2.29 ± 0.18; in series [1] (setting [8]) it was 2.3 ± 0.18; in series [1] (setting [9]), 2.29 ± 0.18; in series [1] (setting [6]), 2.27 ± 0.18; in series [1] (343.15 K, 100 kPa, Rayleigh distillation), 2.18 ± 0.25.

For `ClCCl` [dichloromethane], the “vapor or sublimation pressure” value in series [2] (285.89 K) stood at 34.66 ± 0.065 kPa; in series [2] (287.58 K), 37.33 ± 0.068 kPa; in series [2] (289.94 K) it was 41.33 ± 0.073 kPa; in series [2] (292.12 K), 45.33 ± 0.078 kPa; in series [2] (294.15 K) it was 49.33 ± 0.083 kPa; in series [2] (296.05 K), 53.33 ± 0.09 kPa. Moreover, the “vapor or sublimation pressure” value in series [2] (298.41 K) is reported as 58.66 ± 0.095 kPa; in series [2] (300.61 K), 63.99 ± 0.1 kPa; in series [2] (302.67 K) it was 69.33 ± 0.11 kPa; in series [2] (304.61 K), 74.66 ± 0.12 kPa; in series [2] (306.43 K) it was 79.99 ± 0.12 kPa; in series [2] (308.17 K) it was 85.33 ± 0.13 kPa. Also, the “vapor or sublimation pressure” value in series [2] (309.82 K) is given as 90.66 ± 0.13 kPa; in series [2] (311.39 K), 95.99 ± 0.14 kPa.

Take `ClCCl` [dichloromethane] + CCCCO: the activity coefficient amounted to 1.85 ± 0.1 in series [1] (283.15 K, 100 kPa, inert gas stripping); 1.86 ± 0.11 in series [1] (293.15 K, 100 kPa, inert gas stripping); 1.86 ± 0.11 in series [1] (303.15 K, 100 kPa, inert gas stripping); 1.86 ± 0.11 in series [1] (313.15 K, 100 kPa, inert gas stripping); 1.83 ± 0.1 in series [1] (323.15 K, 100 kPa, inert gas stripping); 1.76 ± 0.1 in series [1] (333.15 K, 100 kPa, inert gas stripping).

Regarding `ClCCl` [dichloromethane] + CO, the activity coefficient was 2.84 ± 0.24 in series [1] (293.15 K, 100 kPa, Rayleigh distillation); 2.87 ± 0.23 in series [1] (setting [7]); 2.87 ± 0.23 in series [1] (setting [8]); 2.83 ± 0.23 in series [1] (setting [9]); 2.81 ± 0.22 in series [1] (setting [6]).

As to `CO` [methanol] + ClCCl, the activity coefficient in series [1] (setting [3]) worked out at 13.4 ± 1.3; in series [1] (setting [4]), 11.6 ± 1.1; in series [1] (setting [5]), 9.86 ± 0.89.

Consider `CCCCO` [butan-1-ol] + ClCCl, for which the activity coefficient was found to be 7.68 ± 0.65 in series [1] (293.15 K, 100 kPa, differential distillation); 6.18 ± 0.51 in series [1] (303.15 K, 100 kPa, differential distillation); 5.43 ± 0.57 in series [1] (311.15 K, 100 kPa, differential distillation).

(Values after the NIST ThermoML archive (doi:10.1016/j.fluid.2015.11.037).)
